{"source": "patent US20220233624A9", "about": "“ANTI-CANCER AND ANTI-PROLIFERATIVE COMPOSITIONS, AND METHODS FOR THEIR USE IN TREATING CANCER” (Natreon, Inc., priority 2020, published 2022)", "tested_on": "TN breast cancer PDCs SB 30750", "experiment": "Anti-proliferation assay on TN breast cancer PDCs SB 30750", "format": "cell-based", "settings": "Homo sapiens", "experimental": "In this Example, AyuFlex®, Capros®, and Ayuric® were each applied to different PDCs than previous tests, TN breast cancer PDCs SB 30750, and tested via the anti-proliferation assay described above. […] Incubation times were 72 hours.", "note": "Read-outs that look alike come from different tables or passages of the source."}
{"smiles": "COc1cccc2c1C(=O)c1c(O)c3c(c(O)c1C2=O)C[C@@](O)(C(=O)CO)C[C@@H]3O[C@H]1C[C@H](N)[C@H](O)[C@H](C)O1", "note": "[Doxorubicin, doxorubicin]", "values": [{"measurement": "inhibition at 10 µM", "setting": "10 uM, 72 h, read-out: % Inhibition Avg", "result": 68, "unit": "%"}, {"measurement": "inhibition at 10 µM", "setting": "10 uM, 72 h, read-out: % Inhibition n1", "result": 78, "unit": "%"}, {"measurement": "inhibition at 10 µM", "setting": "10 uM, 72 h, read-out: % Inhibition n2", "result": 68, "unit": "%"}, {"measurement": "inhibition at 10 µM", "setting": "10 uM, 72 h, read-out: % Inhibition n3", "result": 58, "unit": "%"}, {"measurement": "inhibition at 10 µM", "setting": "read-out: % Inhibition Average (SD)", "result": 68, "unit": "%"}, {"measurement": "inhibition at 10 µM", "setting": "read-out: % Inhibition n1", "result": 78, "unit": "%"}, {"measurement": "inhibition at 10 µM", "setting": "read-out: % Inhibition n2", "result": 68, "unit": "%"}, {"measurement": "inhibition at 10 µM", "setting": "read-out: % Inhibition n3", "result": 58, "unit": "%"}]}
